Test results published in article PMC12119673, “Apoptotic cell death induced by copper (II), manganese (II) and silver (I) complexes containing bridging dicarboxylate and 1,10-phenanthroline ligands: one of the multi-modes of anticancer activity?” (Biometals, 2025).

What was measured:
[1] = In vitro cytotoxicity assessment, alamar blue assay, 24-h exposure; assay type: cell-based, human; conditions: human, MCF-12A cells; MCF-12A, 24-h exposure, 50% reduction in metabolic activity, mean ± SD (N = 3); read-out: Cytotoxic activity IC50 ± SD
Method: The MCF-7 (human breast cancer) and MCF-12A (non-tumourigenic human breast) cell lines were obtained from the Technological University Dublin (TUDublin, City Campus) internal cell bank and commercially from the American Type Culture Collection (ATCC), respectively. Both cell lines were cultured using Dulbecco’s Modified Eagle Medium/Nutrient Mixture F-12 Ham (DMEM-F12) (Sigma, Ireland) (Cat# D6421) media. The MCF-7 media was supplemented with 10% Foetal Bovine Serum (Sigma, Ireland) (Cat# F7524) and 1% L-Glutamine (Sigma, Ireland) (Cat# 592020C). The MCF-12A media was supplemented with 5% Equine Serum (Sigma, Ireland) (Cat# H0146) 1.25% L-Glutamine (Sigma, Ireland) (Cat# 592020C), 20 ng/ml Human Epidermal Growth Factor (Thermo Fisher Scientific, Ireland) (Cat# PHG0313), 0.01 mg/ml insulin (Thermo Fisher Scientific, Ireland)(Cat# 12585014) and 500 ng/ml hydrocortisone (Sigma, Ireland) (Cat# H0888). The cells were grown in T75 culture flasks (Sarstedt, Germany) (Cat# 83.3911.002) and were incubated in a 5% CO2 atmosphere at 37 ℃. The cells were monitored daily, and once 80–90% confluence was reached, they were subcultured with an enzymatic dissociation method using trypsin. Both cell lines were routinely subcultured for 1 week prior to beginning experimental work, to ensure the cells had adapted to the environment.
The MCF-7 and MCF-12A cells were seeded at a density of 1 × 10^4 in 96-well flat bottom plates (Sarstedt, Germany) (Cat# 83.3924) and incubated in a 5% CO2 atmosphere at 37 ℃ for 24 h prior to exposure to the complexes. Following the incubation period, the media was removed, and cells were washed with sterile phosphate-buffered saline (PBS). […] All agents were diluted in supplemented cell culture media, and the cells were exposed to a concentration range of 0.5 μM–100 μM for 24 h in the conditions outlined previously. Following the exposure period, the drug-containing media was removed, and cells were washed three times with PBS, ensuring complete removal of the test agents. A 5% working solution of Alamar Blue (Thermo Fisher Scientific, Ireland) (Cat# DAL1100) was prepared in dark conditions using unsupplemented cell culture media. 100 μl of the solution was added to each well, and the cells were incubated for 3 h. Following incubation, absorbance values were obtained using a Varioskan Lux (Thermo Scientific, USA) at 570 nm and 600 nm wavelengths. Each exposure was carried out in triplicate plates and was repeated three independent times.
The software packages Microsoft^Ⓡ Excel (USA) and GraphPad Prism (Ver. 10.0.3) (GraphPad, USA) were used to analyse the alamar blue data. The treated sample values were first normalised to the negative control values. After normalisation, the mean and standard deviations (SD) were established using Microsoft^Ⓡ Excel. The statistical analysis package GraphPad was then used to determine the IC25 and IC50 concentrations. […] A p value of 0.05 or lower is considered to be statistically significant.

MCF-12A cells = assay: Detection of reactive oxygen species with H2DCFDA; assay type: cell-based, human; conditions: 0.78 μM to 50 μM, over a 6-h period, fold-change compared to the negative control
Method: The production of reactive oxygen species (ROS) was detected in MCF-7 and MCF12A cells using the cell-permeant dye 2',7'- dichlorodihydrofluorescein diacetate (H2DCFDA) (Thermo Fisher Scientific, Ireland) (Cat# D399). Cells were seeded at a density of 1 × 10^4 in 96 well plates and incubated for 24 h. Post-incubation, the media was removed, and cells were washed with PBS. A 10 μM DCFH-DA working solution was prepared using cell culture media, and the cells were incubated with 100 μl of the solution in the dark for 30 min. […] Fluorescent measurements were recorded at 15 min, 30 min, 1 h, and subsequently every hour up to 6 h using a Varioskan Lux™ multimode microplate reader (Thermo Fisher Scientific, Ireland) at an excitation wavelength of 495 nm and emission of 527 nm. The assay was repeated three independent times, using three replicates per plate.
The cells were treated with a concentration range from 0.78 μM to 50 μM, and the response was measured over a 6-h period. This facilitated the evaluation of whether there was a time and/or concentration dependent response from the cells. Hydrogen peroxide (H2O2) was used as a positive control. ROS production is presented as fold-change compared to the negative control.

Compound	IC50 at 24 h [1] [µM]	ROS production (MCF-12A cells)
c1cnc2c(c1)ccc1cccnc12 [Phen, 1,10-Phenanthroline]	20.9 ± 1.96	–
{[Mn2(oda)3(phen)4]^2−[Mn2(oda)(phen)4 (H2O)2]^2+} [Complex 7]	–	markedly elevated production of ROS
